According to patent US12109231B2 (Neuvivo, Inc., priority 2015, dated 2024):
Like-named read-outs stand apart in the source and are kept apart here.

Key:
[1] = test system: G93A SOD-1 mt. mouse model of ALS; settings: SOD-1 mutant mice, 2 mg/kg intravenously every three weeks
Protocol: Chlorite composition administration and survival studies have been done in G93A SOD-1 mt. mouse model of ALS. In this model, the SOD-1 mutant mice begin developing degeneration of neurologic function starting at approximately 70 days of age. The mice were dosed with chlorite composition at 2 mg/kg intravenously every three weeks with neuroscore and survival information being collected weekly.

ALS patients = test system: ALS patients
From the text: (§1) These clinical data provided compelling rationale to test […] in pre-clinical models of Parkinson's disease to investigate its brain penetrance, ability to modulate microglia activation and peripheral immune cell infiltration to the CNS, and protect vulnerable neuronal populations from synuclein-induced degeneration.

IL-18 = settings: Phase 2, responders with elevated IL-18 at baseline
From the text: as §1

LPS = settings: Phase 2, responders positive for LPS at baseline
From the text: as §1

patient with autism = test system: patient with autism
From the text: (§2) Plasma/serum samples are obtained and submitted to a lab-based immunoassay to quantify inflammatory markers in the plasma/serum sample. Inflammatory markers are compared to the patient's pre-treatment levels of plasma/serum inflammatory markers.

[2] = test system: patient with bipolar disorder
From the text: as §2

patient with depression = test system: patient with depression
From the text: as §2

[3] = test system: patient with posttraumatic stress disorder
From the text: as §2

[4] = test system: patient with schizophrenia
From the text: as §2

markers of inflammation = settings: ALS patients, after a single dose
[5] = test system: monocyte/macrophage activation; settings: in vitro
[6] = test system: monocyte/macrophage activation; settings: in vivo

sodium chlorite
survival compared with sham treated animals [1]: almost three weeks longer | neurologic degeneration (neuroscore) ([1]; vs sham): delayed by a similar time | symptom progression in a subset of patients (ALS patients; Phase 2): may have dose-dependently halted symptom progression | slower rate of progression than placebo patients (ALS patients; Phase 2, 2 mg/kg, patients above the median wr-CRP, six months of study): 44% | dose dependence of disease progression in patients with above the median wr-CRP value (ALS patients; Phase 2, baseline wr-CRP above 1125 ng/ml): dose dependent slowing of disease progression | patients who did not progress / stopped progressing (ALS patients; Phase 2, high dose (2 mg/kg), six months of treatment): 25% | number of non-progressing patients relative to placebo (ALS patients; Phase 2, high dose, six months of treatment): More than 2 times | progression in patients with greater inflammation (higher CRP) (ALS patients; Phase 2, high-dose group): slowing of progression was observed | IL-18 in responders following treatment (IL-18): decreased following treatment | LPS in responders following treatment (LPS): decreased following treatment | behavioral and/or neurophysical symptoms of autism (patient with autism; after weekly injection): found to be reduced | levels of plasma/serum inflammatory markers after treatment (patient with autism; autism, vs pre-treatment levels): reduced | behavioral and/or neurophysical symptoms of bipolar disorder ([2]; after weekly injection): found to be reduced | levels of plasma/serum inflammatory markers after treatment ([2]; bipolar disorder, vs pre-treatment levels): reduced | behavioral and/or neurophysical symptoms of depression (patient with depression; after weekly injection): found to be reduced | levels of plasma/serum inflammatory markers after treatment (patient with depression; depression, vs pre-treatment levels): reduced | behavioral and/or neurophysical symptoms of posttraumatic stress disorder ([3]; after weekly injection): found to be reduced | levels of plasma/serum inflammatory markers after treatment ([3]; posttraumatic stress disorder, vs pre-treatment levels): reduced | behavioral and/or neurophysical symptoms of schizophrenia ([4]; after weekly injection): found to be reduced | levels of plasma/serum inflammatory markers after treatment ([4]; schizophrenia, vs pre-treatment levels): reduced | markers of inflammation (markers of inflammation): decrease markers of inflammation | reduction of the difference between ALS and normal control level of monocyte CD16 expression toward the normal value (monocyte CD16; 24 hours after one dose, compared with baseline pretreatment levels): approximately 50% | level of CD16 expression on the CD16 bright subset of monocytes (monocyte CD16; chlorite treated patients compared to placebo): Dose-dependent changes | markers of monocyte/macrophage activation [5]: reversed | markers of monocyte/macrophage activation [6]: reversed
